Data set [1] is described as follows: Oral bioavailability in cannulated Sprague-Dawley rat plasma at 15 mg/kg administered via gavage measured up to 24 hrs post dose by LC/MS/MS analysis. Format: ADME, organism-based.
A short description of data set [2]: Cardiotoxicity in rabbit heart assessed as change in heart rate at 10 uM perfused for 20 mins measured for 1 min by electrophysiology method relative to control. Format: toxicity, tissue-based, Oryctolagus cuniculus.
The test system of the next data set is Hepatitis C virus. Description: Antiviral activity against HCV genotype 1b Con1 expressing NS3 protease infected in human Huh7.5 cells assessed as reduction in viral RNA replication by luciferase reporter gene assay. It is filed as functional, cell-based, Hepacivirus hominis. The note with it: genotype 1b Con1, Huh-7. (In general: A reporter such as luciferase makes a cellular process visible.)

Data set [3] can be described thus: Drug uptake in cannulated Sprague-Dawley rat liver at 15 mg/kg administered via oral gavage measured at 24 hrs post dose by LC/MS/MS analysis. It is filed as ADME, organism-based. The conditions noted are these: read-out: Drug uptake.
The nature of data set [4]: Clearance in cannulated Sprague-Dawley rat plasma at 5 mg/kg, iv administered as 10 mins infusion measured up to 24 hrs post dose by LC/MS/MS analysis. It is filed as ADME, organism-based.
The nature of data set [5]: Half life in cannulated Sprague-Dawley rat plasma at 5 mg/kg, iv administered as 10 mins infusion by LC/MS/MS analysis. Format: ADME, organism-based.
Data set [6] is described as follows: Half life in human liver microsomes. Format: ADME.
Data set [7] is described as follows: AUC in cannulated Sprague-Dawley rat plasma at 15 mg/kg administered via oral gavage measured up to 24 hrs post dose by LC/MS/MS analysis. It is filed as ADME, organism-based. Also noted: dose 15 mg/kg, time < 24 hr, route oral.
Data set [8] can be described thus: Cardiotoxicity in rabbit heart assessed as change in sinoatrial node recovery time at 10 uM perfused for 20 mins measured for 1 min by electrophysiology method relative to control. It is filed as toxicity, tissue-based, Oryctolagus cuniculus.

Structures are written as SMILES.

Broadly, the EC50 is the midpoint of the concentration-response curve. A word on the clearance: it is a measure of how efficiently the substance is removed, as volume per time. Lower therefore signals a low capacity for elimination. What is called half-life is the time in which the quantity being followed falls by half. One may read the AUC as the area under the concentration-time curve, a measure of exposure. Low values mean less exposure, high ones more exposure. Turning to `COc1ccc2c(O[C@@H]3C[C@@H](C(=O)N[C@]4(C(=O)NS(=O)(=O)C5CC5)C[C@H]4C4CC4)N(C(=O)[C@@H](NC(=O)O[C@H](C)C(F)(F)F)C(C)(C)C)C3)nc(OC)cc2c1`, in [1], the bioavailability amounted to 3.5%. In data set [2], the Activity was -58%. Moreover, the EC50 in the data set on Hepatitis C virus came out at 2.4 nM. Besides, in data set [3], the concentration at 24 h amounted to 19.2 µM. The molecule also showed a clearance in [4] of 14 mL/min/kg. Besides, the half-life in data set [5] is 3 h; in data set [6], 1.77 h. In [7], the AUC at 24 h fell in the range of 0.79 to 0.794 µM·h.

Consider `COc1cnc(O[C@@H]2C[C@@H](C(=O)N[C@]3(C(=O)NS(=O)(=O)C4CC4)C[C@H]3C3CC3)N(C(=O)[C@@H](NC(=O)OC(C)(C)C(F)F)C(C)(C)C)C2)c2cc(Cl)ccc12`, for which the EC50 with Hepatitis C virus came to 58.2 nM. In data set [6], this molecule gave a half-life of 2 h.

Turning to `COc1cnc(O[C@@H]2C[C@@H](C(=O)N[C@]3(C(=O)NS(=O)(=O)C4CC4)C[C@H]3C3CC3)N(C(=O)[C@@H](NC(=O)OC3CCC3)C(C)(C)C)C2)c2cc(Cl)ccc12`, the EC50 in the data set on Hepatitis C virus worked out at 16.3 nM. In data set [6], this molecule registered a half-life of 0.967 h.

`COc1cnc(O[C@@H]2C[C@@H](C(=O)N[C@]3(C(=O)NS(=O)(=O)C4CC4)C[C@H]3C3CC3)N(C(=O)[C@@H](NC(=O)OC3(C)CCCC3)C(C)(C)C)C2)c2cc(Cl)ccc12`: in the data set with Hepatitis C virus, the concentration for a half-maximal effect (EC50) was 3.7 nM. Besides, in data set [6], the half-life is 0.4 h.

On to `COc1cnc(O[C@@H]2C[C@@H](C(=O)N[C@]3(C(=O)NS(=O)(=O)C4CC4)C[C@H]3C3CC3)N(C(=O)[C@@H](NC(=O)OCC(F)(F)F)C(C)(C)C)C2)c2cc(Cl)ccc12`, for which the EC50 in the data set with Hepatitis C virus was found to be 48.6 nM.

As for `COc1cnc(O[C@@H]2C[C@@H](C(=O)N[C@]3(C(=O)NS(=O)(=O)C4CC4)C[C@H]3C3CC3)N(C(=O)[C@@H](NC(=O)OC3CCCC3)C(C)(C)C)C2)c2cc(Cl)ccc12`, in the data set with Hepatitis C virus, the EC50 is 19.8 nM. This molecule returned a half-life in data set [6] of 0.65 h.

For the molecule `CCC(CC)[C@H](NC(=O)O[C@H](C)C(F)(F)F)C(=O)N1C[C@H](Oc2ncc(OC)c3ccc(Cl)cc23)C[C@H]1C(=O)N[C@]1(C(=O)NS(=O)(=O)C2CC2)C[C@H]1C1CC1`, the concentration giving a half-maximal response (EC50) with Hepatitis C virus came out at 7.2 nM. The half-life in [6] came to 2 h.

For `COc1cnc(O[C@@H]2C[C@@H](C(=O)N[C@]3(C(=O)NS(=O)(=O)C4CC4)C[C@H]3C3CC3)N(C(=O)[C@@H](NC(=O)O[C@@H](C)C(F)(F)F)C(C)(C)C)C2)c2cc(Cl)ccc12`, the EC50 in the data set on Hepatitis C virus was 146 nM. In addition, in [6], the half-life was above 3.33 h.

Consider `COc1cnc(O[C@@H]2C[C@@H](C(=O)N[C@]3(C(=O)NS(=O)(=O)C4CC4)C[C@H]3C3CC3)N(C(=O)[C@@H](NC(=O)O[C@H](C)C(F)(F)F)C(C)(C)C)C2)c2cc(Cl)cc(Cl)c12`, for which, in data set [1], the bioavailability turned out to be 42.4%. Besides, in the data set with Hepatitis C virus, the EC50 worked out at 3 nM. Further, the concentration at 24 h in data set [3] is 24 µM. The molecule further came in with a clearance in [4] of 40.4 mL/min/kg. Moreover, the values for the half-life in [5] and in [6] were 5.5 h and 2 h, respectively. Also, in data set [7], the AUC at 24 h amounted to 6.3 µM·h.

As for `COc1cnc(O[C@@H]2C[C@@H](C(=O)N[C@]3(C(=O)NS(=O)(=O)C4CC4)C[C@H]3C3CC3)N(C(=O)[C@@H](NC(=O)O[C@H](C)C(F)(F)F)C(C)(C)C)C2)c2cccc(Cl)c12`, in data set [1], the bioavailability worked out at 122%. The Activity in [2] is listed as -19%; in data set [8], 53%. Also, in the data set on Hepatitis C virus, the EC50 was determined as 1.8 nM. Moreover, the concentration at 24 h in data set [3] was 49.3 µM. The same molecule registered a clearance in data set [4] of 40.4 to 40.7 mL/min/kg. In addition, the half-life in data set [5] is 10.9 h; in data set [6] it was 3.33 h. The same molecule registered an AUC at 24 h in [7] of 8.6 µM·h.

As for `COc1cnc(O[C@@H]2C[C@@H](C(=O)N[C@]3(C(=O)NS(=O)(=O)C4CC4)C[C@H]3C3CC3)N(C(=O)[C@@H](NC(=O)OC(C)(C)C(F)(F)F)C(C)(C)C)C2)c2cc(Cl)ccc12`, in [1], the bioavailability amounted to 35.5%. The results for the Activity in [2] and in [8] were -14.3% and 50.4%, respectively. Moreover, in the data set with Hepatitis C virus, the EC50 worked out at 1.9 nM. Also, in data set [3], the concentration at 24 h came to 55.3 µM. Besides, the clearance in data set [4] worked out at 4.7 mL/min/kg. Moreover, the half-life in [5] is 14 h; in data set [6], 2.13 h. For the same molecule, the AUC at 24 h in data set [7] is 19.1 µM·h.

Consider `COc1cnc(O[C@@H]2C[C@@H](C(=O)N[C@]3(C(=O)NS(=O)(=O)C4CC4)C[C@H]3C3CC3)N(C(=O)[C@@H](NC(=O)O[C@H](C)C(F)(F)F)C3CCC3)C2)c2cc(Cl)ccc12`, for which the EC50 with Hepatitis C virus came to 8.6 nM. Moreover, in data set [6], the half-life turned out to be 1.85 h.

Take `COc1cnc(O[C@@H]2C[C@@H](C(=O)N[C@]3(C(=O)NS(=O)(=O)C4CC4)C[C@H]3C(C)C)N(C(=O)[C@@H](NC(=O)OC(C)(C)C)C(C)(C)C)C2)c2cc(Cl)ccc12`: the half-maximal effective concentration (EC50) in the data set on Hepatitis C virus was above 100 nM. The molecule also registered a half-life in [6] of 1.38 h.

Take `C=C(C)[C@@H]1C[C@]1(NC(=O)[C@@H]1C[C@@H](Oc2ncc(OC)c3ccc(Cl)cc23)CN1C(=O)[C@@H](NC(=O)OC(C)(C)C)C(C)(C)C)C(=O)NS(=O)(=O)C1CC1`: the EC50 with Hepatitis C virus was found to be 12.5 nM. In data set [6], this molecule returned a half-life of 0.0833 h.

For the molecule `CC[C@@H](C)[C@H](NC(=O)O[C@H](C)C(F)(F)F)C(=O)N1C[C@H](Oc2ncc(OC)c3ccc(Cl)cc23)C[C@H]1C(=O)N[C@]1(C(=O)NS(=O)(=O)C2CC2)C[C@H]1C1CC1`, in the data set on Hepatitis C virus, the 50% effective concentration (EC50) turned out to be 6.3 nM. In data set [6], this molecule returned a half-life of 1.63 h.

On to `C=C[C@@H]1C[C@]1(NC(=O)[C@@H]1C[C@@H](Oc2nccc3cc(OC)ccc23)CN1C(=O)[C@@H](NC(=O)OC(C)(C)C)C(C)(C)C)C(=O)NS(=O)(=O)C1CC1`, for which the Activity is -25% in [2] and 290% in data set [8]. For the same molecule, in data set [3], the concentration at 24 h was found to be 0.74 µM. This molecule returned a half-life in [6] of 0.55 h. Further, the exposure (AUC) at 24 h in data set [7] worked out at 14.1 µM·h.

As for `COc1cnc(O[C@@H]2C[C@@H](C(=O)N[C@]3(C(=O)NS(=O)(=O)C4CC4)C[C@H]3C3CC3)N(C(=O)[C@@H](NC(=O)O[C@H](C)C(F)(F)F)C3CC3)C2)c2cc(Cl)ccc12`, in the data set with Hepatitis C virus, the EC50 was 13.3 nM. The half-life in data set [6] is 3.33 h.

Consider `COc1cnc(O[C@@H]2C[C@@H](C(=O)N[C@]3(C(=O)NS(=O)(=O)C4CC4)C[C@H]3C3CC3)N(C(=O)[C@@H](NC(=O)O[C@H](C)C(F)(F)F)C(C)(C)C)C2)c2ccc(Cl)cc12`, for which the bioavailability in [1] was found to be 81%. The EC50 in the data set with Hepatitis C virus was 3.4 nM. Also, the concentration at 24 h in [3] is 30.7 µM. The clearance in [4] is 30.2 mL/min/kg. For the same molecule, the half-life is 10 h in data set [5] and 2.37 h in data set [6]. The same molecule had an AUC at 24 h in data set [7] of 7.9 µM·h.

With `COc1cnc(O[C@@H]2C[C@@H](C(=O)N[C@]3(C(=O)NS(=O)(=O)C4CC4)C[C@H]3C3CC3)N(C(=O)[C@@H](NC(=O)OC(C)C)C(C)(C)C)C2)c2cc(Cl)ccc12`, the 50% effective concentration (EC50) in the data set with Hepatitis C virus came out at 66.7 nM. Moreover, in data set [6], the half-life stood at 0.583 h.

Consider `COc1cnc(O[C@@H]2C[C@@H](C(=O)N[C@]3(C(=O)NS(=O)(=O)C4CC4)C[C@H]3C3CC3)N(C(=O)[C@@H](NC(=O)O[C@H](C)C(F)(F)F)C(C)C)C2)c2cc(Cl)ccc12`, for which the 50% effective concentration (EC50) with Hepatitis C virus turned out to be 8 nM. This molecule registered a half-life in [6] of 2.58 h.
